Results reported in patent US9049814B2, “Coated seeds and methods of making coated seeds” (VamTech, LLC, priority 2007, dated 2015).

Assays:
[1] = test system: VAM fungi (Glomus etunicatum, Glomus clarum, Entrophospora columbiana, Glomus intraradices) on corn roots; assay: VAM colonization of corn roots from Myconate over-treated seed (2007); format: in vivo, Zea mays L.; conditions: for % Root colonization by VAM: Mean (%) / % Root colonization by VAM in 5 replicates: A / % Root colonization by VAM in 5 replicates: B / % Root colonization by VAM in 5 replicates: C / % Root colonization by VAM in 5 replicates: D / % Root colonization by VAM in 5 replicates: E: variety BH, fungicide/insecticide pre-treated seed; for % Root colonization by VAM: Mean (%): mean of 5 replicates; for % Root colonization by VAM in 5 replicates: A: replicate A; for % Root colonization by VAM in 5 replicates: B: replicate B; for % Root colonization by VAM in 5 replicates: C: replicate C; for % Root colonization by VAM in 5 replicates: D: replicate D; for % Root colonization by VAM in 5 replicates: E: replicate E
Experimental: Methods: This study was conducted between February-April 2007 in a greenhouse at the Formosa Agricultural and Environmental Research Center using hybrid corn plants (Zea mays L.) var. Beck's Hybrids 5959 (HB) and Dow/Mycogen 2D675 (PG). The hybrid corn seed was purchased from commercial sources and was pre-treated with one of two fungicidal/insecticidal seed treatments. Variety HB was commercially treated with Beck's “SureGro” containing fludioxonil and mefenoxam fungicides; together with Agriliance Actellic 5E (a.i. pirimiphos-methyl) insecticide, according to label directions. Variety PG was commercially treated with Syngenta “Cruiser Extreme” (a.i. fludioxonil, mefenoxam and azoxystrobin fungicides plus thiamethoxam insecticide) according to label directions.
Subsequently, the corn seed was over-treated with one of two formulations of Myconate. One formulation contained 98% potassium formononetinate (kf) together with Polykote polymer; and the other, 100% acid formononetin (afP) together with Polykote polymer, wetting agent, colorant, and preservative. The kf treatments, 1 through 6 in Table 6, contained varying amounts of potassium formononetinate and were applied using a lab bench apparatus. The afP treatments, 18 and 19, were applied using commercial equipment. Treated HB seed received the kf treatment of potassium formononetinate at rates of 0.2 to 5.6 mg/seed. Treated PG seed received the afP treatment of formononetin at single rate of 0.8 mg/seed. The concentration of formononetin per seed was calculated by gravimetric measurement of the coating applied to the seed.
The controls for the kf treatments involved two seed samples, 7 and 8, both untreated with kf and one of these was also untreated with VAM spores. The control for the afP treatment was treated with afP but was not treated with VAM. The various treatments, including the addition of VAM spores to the growing medium prior to sowing for VAM development studies are described schematically in Table 6.
The colonization rate of VAM fungi on corn roots was determined using methods commonly used to quantify vesicular arbuscular mycorrhiza (Kormanik PP and AC McGraw (1984) Quantification of vesicular-arbuscular mycorrhizae in plant roots. In N. C. Schenck (ed.) Methods and Principles of Mycorrhizal Research. American Phytopathological Society, St. Paul, Minn.; Phillips J M and D S Hayman (1970) Improved procedures for clearing roots and staining parasitic and vesicular-arbuscular mycorrhizal fungi for rapid assessment of infection. Trans. Br. Mycol. Soc. 55:158-160; Read D J, H K Koncheki and J Hodgson (1976) Vesicular-arbuscular mycorrhiza in natural vegetation systems. New Phytol. 77:641-653). Speedling tray cells (30 ml volume) were partially (⅔) filled with autoclaved Miraco-III potting mix and inoculated with 95 spores of VAM cocktail (Lot No. 12-14-04). The VAM cocktail contained spores of Glomus etunicatum, Glomus clarum, Entrophospora columbiana and Glomus intraradices. The cocktail was prepared by mixing dry-sieved (179 microns) spore preparations of G. entunicatum, G. clarum and E. columbiana with dry root pieces containing the intraradical spores of G. intraradices. Each fungal species was individually produced and processed using a pot culture technique. The cells were then filled with Miraco-III mix. After sowing, (one seed per cell, 9-20 seed per treatment), the trays were incubated under continuous light at room temperature. Ten days after sowing, five seedlings from each experimental treatment and 10 from two untreated controls (Treatments 7 and 8) were randomly selected and transplanted to 1-liter cups containing a sand-based medium. The cups were incubated in a greenhouse and a low phosphorus (P) nutrient solution (1.175 ppm) was applied to all treatments 1-2 times per week as needed to maintain proper soil moisture. […]

[2] = test system: VAM fungi (4 species VAM fungal cocktail) on corn plants; assay: Percent VAM development on 6-week-old corn plants from coated seed (2006); format: in vivo; conditions: for % VAM: 6-week-old corn plants, 95 VAM spores, low P; for % VAM, averaged: average across treatments, base VAM level 54% without treatment
From the text: Example 1 describes experimental studies carried out, in spring and summer of 2006 to evaluate the effects of different commercial fungicide seed coatings on VAM development in germinated corn seedlings in the presence and absence of alkali formononetinate. All corn seed coatings were done by Sub-Sahara International, Inc. (now owned by Becker Underwood Inc.) using standard coating procedures. The treater used was an RP-14 rotary seed coating machine manufactured by Sedpell in Canada. Successive applications were made with the fungicides being applied first according to the label instructions; then, when the seeds were dry they were over-coated with the alkali (potassium) formononetinate.
Fungicides were applied as a high viscosity, liquid suspension formulations according to the use directions on the respective labels.
The alkali formononetinate was dissolved in water and Polykote added according to the following ratios by weight: water—70 parts; alkali formononetinate—45 parts; Polykote—20 parts.
Seed germination and VAM development tests were carried out in a greenhouse at the Formosa Agricultural and Environmental Research Center, LaWard, Tex.
Percent VAM development was determined, within 3 weeks of treatment, on five, 6-week-old corn plants (from seeding) per treatment planted in sterile potting soil containing 95 spores of a 4 species VAM fungal cocktail at low P concentration. Originally 10 plants per treatment were installed in 30 ml Seedling® cells and after 10 days, 5 were transplanted into 1 liter containers.

[3] = test system: VAM-infected roots of oats; conditions: thereby decreasing phosphorus uptake; cited from earlier work
Glomus mosseae = conditions: cited from earlier work
[4] = test system: mycorrhizal colonization of Leucaena leucocephala; conditions: in vivo; cited from earlier work

For COc1ccc(-c2coc3cc([O-])ccc3c2=O)cc1.[K+] [Myconate kf, potassium formononetinate], the “increase of VAM colonization” value ([1]; 1.6 mg/seed) was “approximately 30%”, the “% Root colonization by VAM: Mean (%)” value ([1]; Treatment 1: 0.2 mg/seed kf) was 41.0% and the “% Root colonization by VAM in 5 replicates: A” value ([1]; Treatment 1: 0.2 mg/seed kf) was 40%. The “% Root colonization by VAM in 5 replicates: B” value ([1]; Treatment 1: 0.2 mg/seed kf) was 47%, the “% Root colonization by VAM in 5 replicates: C” value ([1]; Treatment 1: 0.2 mg/seed kf) was 41% and the “% Root colonization by VAM in 5 replicates: D” value (“% Root colonization by VAM … D” below) ([1]; Treatment 1: 0.2 mg/seed kf) was 39%. The “% Root colonization by VAM in 5 replicates: E” value ([1]; Treatment 1: 0.2 mg/seed kf) was 38%, the “% Root colonization by VAM: Mean (%)” value ([1]; Treatment 2: 0.4 mg/seed kf) was 43.6% and the “% Root colonization by VAM in 5 replicates: A” value ([1]; Treatment 2: 0.4 mg/seed kf) was 44%. The “% Root colonization by VAM in 5 replicates: B” value ([1]; Treatment 2: 0.4 mg/seed kf) was 48%, the “% Root colonization by VAM in 5 replicates: C” value ([1]; Treatment 2: 0.4 mg/seed kf) was 45% and the “% Root colonization by VAM … D” value ([1]; Treatment 2: 0.4 mg/seed kf) was 40%. The “% Root colonization by VAM in 5 replicates: E” value ([1]; Treatment 2: 0.4 mg/seed kf) was 41%, the “% Root colonization by VAM: Mean (%)” value ([1]; Treatment 3: 0.8 mg/seed kf) was 43.8% and the “% Root colonization by VAM in 5 replicates: A” value ([1]; Treatment 3: 0.8 mg/seed kf) was 45%. For the same compound, the “% Root colonization by VAM in 5 replicates: B” value ([1]; Treatment 3: 0.8 mg/seed kf) was 42%, the “% Root colonization by VAM in 5 replicates: C” value ([1]; Treatment 3: 0.8 mg/seed kf) was 47% and the “% Root colonization by VAM … D” value ([1]; Treatment 3: 0.8 mg/seed kf) was 45%. For the same compound, the “% Root colonization by VAM in 5 replicates: E” value ([1]; Treatment 3: 0.8 mg/seed kf) was 40%, the “% Root colonization by VAM: Mean (%)” value ([1]; Treatment 4: 1.6 mg/seed kf) was 32.0% and the “% Root colonization by VAM in 5 replicates: A” value ([1]; Treatment 4: 1.6 mg/seed kf) was 30%. For the same compound, the “% Root colonization by VAM in 5 replicates: B” value ([1]; Treatment 4: 1.6 mg/seed kf) was 39%, the “% Root colonization by VAM in 5 replicates: C” value ([1]; Treatment 4: 1.6 mg/seed kf) was 28% and the “% Root colonization by VAM … D” value ([1]; Treatment 4: 1.6 mg/seed kf) was 35%. The “% Root colonization by VAM in 5 replicates: E” value ([1]; Treatment 4: 1.6 mg/seed kf) was 28%, the “% Root colonization by VAM: Mean (%)” value ([1]; Treatment 5: 4.0 mg/seed kf) was 25.0% and the “% Root colonization by VAM in 5 replicates: A” value ([1]; Treatment 5: 4.0 mg/seed kf) was 27%. For the same compound, the “% Root colonization by VAM in 5 replicates: B” value ([1]; Treatment 5: 4.0 mg/seed kf) was 21%, the “% Root colonization by VAM in 5 replicates: C” value ([1]; Treatment 5: 4.0 mg/seed kf) was 31% and the “% Root colonization by VAM … D” value ([1]; Treatment 5: 4.0 mg/seed kf) was 24%. For the same compound, the “% Root colonization by VAM in 5 replicates: E” value ([1]; Treatment 5: 4.0 mg/seed kf) was 22%, the “% Root colonization by VAM: Mean (%)” value ([1]; Treatment 6: 5.6 mg/seed kf) was 18.2% and the “% Root colonization by VAM in 5 replicates: A” value ([1]; Treatment 6: 5.6 mg/seed kf) was 19%. For the same compound, the “% Root colonization by VAM in 5 replicates: B” value ([1]; Treatment 6: 5.6 mg/seed kf) was 12%, the “% Root colonization by VAM in 5 replicates: C” value ([1]; Treatment 6: 5.6 mg/seed kf) was 25% and the “% Root colonization by VAM … D” value ([1]; Treatment 6: 5.6 mg/seed kf) was 18%. The “% Root colonization by VAM in 5 replicates: E” value ([1]; Treatment 6: 5.6 mg/seed kf) was 17%, the “effect on VAM colonization” value ([1]; at or above 4.0 mg/seed) was “decreased VAM colonization” and the “increase of VAM colonization” value ([1]; commercial use rate (0.8 mg/seed), over the untreated control (24.2% VAM colonization)) was 81%. For the same compound, the “% VAM” value ([2]; 0.5 mg alkali formononetinate/seed over-coated on the named fungicide (or none)) was 61%, the “% VAM, averaged” value ([2]; 0.5 mg alkali formononetinate/seed) was 67% and the “% VAM” value ([2]; 1.0 mg alkali formononetinate/seed over-coated on the named fungicide (or none)) was 66%. For the same compound, the “% VAM, averaged” value ([2]; 1.0 mg alkali formononetinate/seed) was 73%.
For O=[N+]([O-])c1c(Cl)c(Cl)c(Cl)c(Cl)c1Cl [PCNB, pentachloronitrobenzene], the “VAM-infected root length of oats” value [3] is given as “decreased”.
In the case of CCCCNC(=O)n1c(NC(=O)OC)nc2ccccc21 [benomyl], the “Growth of the vesicular arbuscular mycorrhizal fungus Glomus mosseae” value (Glomus mosseae) is given as “affected”.
In the case of N#Cc1c(Cl)c(Cl)c(Cl)c(C#N)c1Cl [chlorothalonil], the “mycorrhizal colonization, phosphorus concentration, and dry matter yields of Leucaena leucocephala” value [4] is listed as “decrease”.
